The text below walks through data of paper PMC5467912, “Asymmetric regulation of quorum-sensing receptors drives autoinducer-specific gene expression programs in Vibrio cholerae” (PLoS Genetics, 2017).

Values joined by “and” are separate entries in the source; they are usually repeats but may differ in a detail not shown here. Equal entries are not always repeated. Where two headings read alike, the source gives them in different places.

In one assay the test system is CqsS C170Y. The note with it: cited from earlier work.
For assay [1], the system named is CqsS F166L. Nature of the assay: CqsS-dependent repression of qrr4-gfp, CqsS F166L (Fig 7C). Type of assay: cell-based, Vibrio cholerae.
Another assay concerns qrr4. The assay is classed as cell-based.
In the next assay the test system is CqsS F162A. The following applies: cited from earlier work.
Assay [2] deals with QS-controlled luxCDABE operon. Type of assay: cell-based. The following applies: for RLU: PluxPQ-CqsS::3XFLAG LuxS-CqsA-.
For assay [3], the system named is CqsS F166L. The note with it: cited from earlier work.

Take `CCCCCCCCCC(=O)[C@@H](O)CC` [CAI-1, (S)-3-hydroxytridecan-4-one]: the “response of CqsS variant to CAI-1” value with CqsS C170Y, in the assay with CqsS F162A and with CqsS F166L [3] was “do not respond” throughout. Besides, the Qrr4-GFP/OD600 in the assay with CqsS F166L [1] (Treatment 1uM, CqsS mutant F166L) was 7778886 and 7289924 and 6896372. Further, the “response (Qrr4-GFP production)” value with CqsS F166L [1] (compounds at 1 μM) is listed as “nearly impervious”. Besides, the “RLU, average per biological replicate (Totals)” value in the assay with qrr4 (LuxS-CqsA- strain + autoinducer, Rep 1-3) is 2.55E+08 RLU and 2.82E+08 RLU and 3.63E+08 RLU. In addition, the “reduction of qrr4-luxCDABE expression” value in the assay with qrr4 (saturating autoinducer, ΔcqsA ΔluxS mutant) is reported as 20 fold. Moreover, the RLU in assay [2] (OD600 0.0561) came to 7.33E+06 RLU; in assay [2] (OD600 0.3257), 8.15E+05 RLU; in assay [2] (OD600 1.037) it was 1.96E+05 RLU; in assay [2] (OD600 1.243), 3.52E+06 RLU; in assay [2] (OD600 1.958), 2.58E+09 RLU; in assay [2] (OD600 2.673), 3.36E+09 RLU. For the same compound, in assay [2] (S9B Fig), the “QS response when cqsS is under the luxPQ promoter” value was “incapable of inducing the premature response”.
